The values that follow are results of earlier work, collected in patent US20100028432A1, “FORMULATIONS OF ACTIVE PRINCIPLES INCORPORATED IN SLNS SUITABLE FOR TRANSDERMAL ADMINISTRATION” (NANOVECTOR S.R.L., priority 2006, published 2010).

For data set [1] the following is noted: transdermal systems of U.S. Pat. No. 5,508,039 containing melatonin powder and an absorption enhancer; in vitro tests.
For data set [2] the following is noted: intravenous bolus injection.
The conditions of data set [3]: administered orally.
For data set [4] the following is noted: in vivo.

On to `COc1ccc2[nH]cc(CCNC(C)=O)c2c1` [melatonin, N-acetyl-5-methoxytryptamine], for which the half-life of melatonin in data set [1] is at most 2 h. Moreover, the half-life entry in data set [2] is on record as “around 40 minutes”. Further, the bioavailability entry in data set [3] is “low and variable bioavailability”. Moreover, the plasma clearance result in data set [3] (marked first-pass hepatic metabolism) is “rapid plasma clearance”.

`CN1CCc2cccc3c2[C@H]1Cc1ccc(O)c(O)c1-3` [Apomorphine]: in data set [4], the elimination time entry is “about 33 minutes”.
